Test results reported in US12077503B2, “Substituted cyclic amides and their use as herbicides” (FMC CORPORATION, priority 2015, dated 2024).
Like-named read-outs stand apart in the source and are kept apart here.

Key:
Assay in all cases: Test A postemergence
Assay type in all cases: in vivo
[1] = test system: Galium (catchweed bedstraw, Galium aparine); conditions: Galium, post-emergence, 240 h; for pest or weed control at 125 g/ha: 125 g ai/ha; for pest or weed control at 500 g/ha: 500 g ai/ha
Method in brief: (§1)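 Each rating is a visual injury score from 0 to 100 given about 10 d after treatment, judged against untreated controls kept alongside in the greenhouse. In loam soil–sand blend, seeds got a preemergence directed soil spray, while postemergence plants were 2 to 10 cm tall at spraying.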

[2] = test system: Kochia (Kochia scoparia); conditions: Bassia scoparia, post-emergence, 240 h; for pest or weed control at 125 g/ha: 125 g ai/ha; for pest or weed control at 500 g/ha: 500 g ai/ha
Method in brief: as §1

[3] = test system: barnyardgrass (Echinochloa crus-galli); conditions: Echinochloa crus-galli, post-emergence, 240 h; for pest or weed control at 125 g/ha: 125 g ai/ha; for pest or weed control at 500 g/ha: 500 g ai/ha
Method in brief: as §1

[4] = test system: corn (Zea mays); conditions: Zea mays, post-emergence, 240 h; for plant injury at 125 g/ha / Corn plant response rating (crop injury, 0 = no effect, 100 = complete kill) at 125 g/ha: 125 g ai/ha; for plant injury at 125 g/ha: read-out: Corn plant response rating (0 to 100 scale); for Corn plant response rating (crop injury, 0 = no effect, 100 = complete kill) at 500 g/ha: visual injury, approx. 10 d
Method in brief: as §1

[5] = test system: ragweed (common ragweed, Ambrosia elatior); conditions: Ambrosia artemisiifolia, post-emergence, 240 h; for pest or weed control at 125 g/ha: 125 g ai/ha; for pest or weed control at 500 g/ha: 500 g ai/ha
Method in brief: as §1

[6] = postemergence, visual injury vs untreated controls after approx. 10 d, 0 = no effect, 100 = complete control, read-out: Galium plant response rating (0 to 100 scale)
[7] = postemergence, visual injury vs untreated controls after approx. 10 d, 0 = no effect, 100 = complete control, read-out: Kochia plant response rating (0 to 100 scale)
[8] = postemergence, visual injury vs untreated controls after approx. 10 d, 0 = no effect, 100 = complete control, read-out: Barnyardgrass plant response rating (0 to 100 scale)
[9] = postemergence, visual injury vs untreated controls after approx. 10 d, 0 = no effect, 100 = complete control
[10] = postemergence, visual injury vs untreated controls after approx. 10 d, 0 = no effect, 100 = complete control, read-out: Ragweed plant response rating (0 to 100 scale)
[11] = Postemergence, visual injury, 0 to 100 scale (0 no effect, 100 complete control), approx. 10 d, read-out: Plant response rating, Galium
[12] = Postemergence, visual injury, 0 to 100 scale (0 no effect, 100 complete control), approx. 10 d, read-out: Plant response rating, Kochia
[13] = Postemergence, visual injury, 0 to 100 scale (0 no effect, 100 complete control), approx. 10 d, read-out: Plant response rating, Barnyardgrass
[14] = Postemergence, 500 g ai/ha, 0 to 100 scale (0 no effect, 100 complete control)
[15] = Postemergence, visual injury, 0 to 100 scale (0 no effect, 100 complete control), approx. 10 d, read-out: Plant response rating, Ragweed
[16] = postemergence, visual injury after approximately 10 d, 0 to 100 scale (0 no effect, 100 complete control), read-out: Plant response rating, Galium
[17] = postemergence, visual injury after approximately 10 d, 0 to 100 scale (0 no effect, 100 complete control), read-out: Plant response rating, Kochia
[18] = postemergence, visual injury after approximately 10 d, 0 to 100 scale (0 no effect, 100 complete control), read-out: Plant response rating, Barnyardgrass
[19] = postemergence, visual injury after approximately 10 d, 0 to 100 scale (0 no effect, 100 complete control)
[20] = postemergence, visual injury after approximately 10 d, 0 to 100 scale (0 no effect, 100 complete control), read-out: Plant response rating, Ragweed
[21] = Postemergence, visual injury after approximately 10 d, 0 to 100 scale where 0 is no effect and 100 is complete control, read-out: Plant response rating, Galium
[22] = Postemergence, visual injury after approximately 10 d, 0 to 100 scale where 0 is no effect and 100 is complete control, read-out: Plant response rating, Kochia
[23] = Postemergence, visual injury after approximately 10 d, 0 to 100 scale where 0 is no effect and 100 is complete control, read-out: Plant response rating, Barnyardgrass
[24] = Postemergence, visual injury after approximately 10 d, 0 to 100 scale where 0 is no effect and 100 is complete control
[25] = Postemergence, visual injury after approximately 10 d, 0 to 100 scale where 0 is no effect and 100 is complete control, read-out: Plant response rating, Ragweed

| SMILES | pest or weed control at 500 g/ha [1, 11] | pest or weed control at 500 g/ha [2, 12] | pest or weed control at 500 g/ha [3, 13] | Corn plant response rating (crop injury, 0 = no effect, 100 = complete kill) at 500 g/ha [4, 14] | pest or weed control at 500 g/ha [5, 15] | pest or weed control at 125 g/ha [1, 16] | pest or weed control at 125 g/ha [2, 17] | pest or weed control at 125 g/ha [3, 18] | Corn plant response rating (crop injury, 0 = no effect, 100 = complete kill) at 125 g/ha [4, 19] | pest or weed control at 125 g/ha [5, 20] | further results |
| --- | --- | --- | --- | --- | --- | --- | --- | --- | --- | --- | --- |
| CN1CC[C@H](c2ccc(C(F)(F)F)cc2)[C@@H](C(=O)Nc2cccc(Cl)c2F)C1=O [Compound 1228] |  |  |  |  |  |  |  |  |  |  | pest or weed control at 125 g/ha [1, 6]: 20%; pest or weed control at 500 g/ha ([1]; postemergence, 0 to 100 scale, 0 is no effect, 100 is complete control, read-out: Galium plant response rating): 60%; pest or weed control at 125 g/ha [2, 7]: 60%; pest or weed control at 500 g/ha ([2]; postemergence, 0 to 100 scale, 0 is no effect, 100 is complete control, read-out: Kochia plant response rating): 60%; pest or weed control at 125 g/ha [3, 8]: 90%; pest or weed control at 500 g/ha ([3]; postemergence, 0 to 100 scale, 0 is no effect, 100 is complete control, read-out: Barnyardgrass plant response rating): 90%; plant injury at 125 g/ha [4, 9]: 20%; plant injury at 500 g/ha ([4]; 500 g ai/ha, postemergence, 0 to 100 scale, 0 is no effect, 100 is complete control, read-out: Corn plant response rating): 70%; pest or weed control at 125 g/ha [5, 10]: 0%; pest or weed control at 500 g/ha ([5]; postemergence, 0 to 100 scale, 0 is no effect, 100 is complete control, read-out: Ragweed plant response rating): 0% |
| CN1C[C@H](c2cccc(C(F)(F)F)c2)[C@@H](C(=O)Nc2ccc(F)cc2C(F)(F)F)C1=O [Compound 1250] | 60% | 20% | 90% | 70% | 0% |  |  |  |  |  | pest or weed control at 125 g/ha [1, 6]: 40%; pest or weed control at 125 g/ha [2, 7]: 0%; pest or weed control at 125 g/ha [3, 8]: 70%; plant injury at 125 g/ha [4, 9]: 40%; pest or weed control at 125 g/ha [5, 10]: 0% |
| O=C1NC[C@H](c2cccc(C(F)(F)F)c2)[C@H]1C(=O)Nc1ccccc1C1CC1 [Compound 748] |  |  |  |  |  | 0% | 0% | 40% | 0% | 0% |  |
| CN1C[C@H](c2cc(F)c(F)c(F)c2)[C@@H](C(=O)Nc2ccc(F)c(F)c2F)C1=O [Compound 757] |  |  |  |  |  | 50% | 20% | 90% | 70% | 0% |  |
| CN1C[C@H](c2ccc3c(c2)CCO3)[C@@H](C(=O)Nc2ccccc2F)C1=O [Compound 1321] | 50% | 50% | 90% | 70% | 20% |  |  |  |  |  | pest or weed control at 125 g/ha ([1]; Postemergence, visual rating about 10 d after treatment, read-out: Galium plant response rating (0 to 100 scale)): 30%; pest or weed control at 125 g/ha ([2]; Postemergence, visual rating about 10 d after treatment, read-out: Kochia plant response rating (0 to 100 scale)): 0%; pest or weed control at 125 g/ha ([3]; Postemergence, visual rating about 10 d after treatment, read-out: Barnyardgrass plant response rating (0 to 100 scale, 0 no effect, 100 complete control)): 90%; plant injury at 125 g/ha ([4]; Postemergence, visual rating about 10 d after treatment): 40%; pest or weed control at 125 g/ha ([5]; Postemergence, visual rating about 10 d after treatment, read-out: Ragweed plant response rating (0 to 100 scale)): 0% |
| CCc1ccc([C@H]2CNC(=S)[C@@H]2C(=O)Nc2cccc(F)c2C)cc1 [Compound 761] |  |  |  |  |  | 0% | 0% | 70% | 0% | 0% |  |
| CS(=O)(=O)c1ccccc1NC(=O)[C@H]1C(=O)N(C2CC2)CC[C@@H]1c1cccc(C(F)(F)F)c1 [Compound 927] |  |  |  |  |  |  |  |  |  |  | pest or weed control at 125 g/ha [1, 21]: 0%; pest or weed control at 125 g/ha [2, 22]: 0%; pest or weed control at 125 g/ha [3, 23]: 0%; Corn plant response rating (crop injury, 0 = no effect, 100 = complete kill) at 125 g/ha [4, 24]: 0%; pest or weed control at 125 g/ha [5, 25]: 0% |
| CN1CC[C@H](c2cccc(C(F)(F)F)c2)[C@@H](C(=O)Nc2ccc(F)c(F)c2F)C1=O [Compound 1395] | 0% | 0% | 90% | 70% | 0% |  |  |  |  |  | pest or weed control at 125 g/ha ([1]; Postemergence, visual injury after approx. 10 d, 0 to 100 scale, 0 no effect, 100 complete control, read-out: Plant response rating, Galium): 0%; pest or weed control at 125 g/ha ([2]; Postemergence, visual injury after approx. 10 d, 0 to 100 scale, 0 no effect, 100 complete control, read-out: Plant response rating, Kochia): 0%; pest or weed control at 125 g/ha ([3]; Postemergence, visual injury after approx. 10 d, 0 to 100 scale, 0 no effect, 100 complete control, read-out: Plant response rating, Barnyardgrass): 90%; Corn plant response rating (crop injury, 0 = no effect, 100 = complete kill) at 125 g/ha ([4]; Postemergence, visual injury after approx. 10 d, 0 to 100 scale, 0 no effect, 100 complete control): 50%; pest or weed control at 125 g/ha ([5]; Postemergence, visual injury after approx. 10 d, 0 to 100 scale, 0 no effect, 100 complete control, read-out: Plant response rating, Ragweed): 0% |
| O=C1NC[C@H](c2ccc3c(c2)CCO3)[C@H]1C(=O)Nc1cccc(F)c1F [Compound 785] |  |  |  |  |  | 50% | 0% | 90% | 0% | 0% |  |
| CN1C[C@H](c2cc(F)cc(C(F)(F)F)c2)[C@@H](C(=O)Nc2cccc(Cl)c2F)C1=O [Compound 995] |  |  |  |  |  |  |  |  |  |  | pest or weed control at 125 g/ha [1, 21]: 40%; pest or weed control at 125 g/ha [2, 22]: 0%; pest or weed control at 125 g/ha [3, 23]: 60%; Corn plant response rating (crop injury, 0 = no effect, 100 = complete kill) at 125 g/ha [4, 24]: 30%; pest or weed control at 125 g/ha [5, 25]: 0% |
